According to patent US20230123334A1, “AMINO LIPID COMPOUND, PREPARATION METHOD THEREFOR, AND APPLICATION THEREOF” (SHENZHEN SHENXIN BIOTECHNOLOGY CO., LTD., priority 2020, published 2023):

What follows are molecules tested on HEK293 cells (assay: Preliminary screening as mRNA vectors, EGFP mRNA transfection of HEK293 cells). Conditions: EGFP mRNA 50 ng per well, 96-well plates; percentage of GFP fluorescent cells relative to total number of cells (Hoechst).
Type: cell-based
Method in brief: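 Screening format: EGFP mRNA transfection (50 ng/well) into HEK293 in 10% FBS-supplemented DMEM. Percent green fluorescent cells, normalised to Hoechst nuclear count, gave the value; Lipofectamine2000 was the reference transfectant.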

Row | SMILES | Absolute mRNA transfection efficiency in HEK293 cells [%]
1 | CCCCCCCCCCCCNc1nc(NCCN2CCN(C)CC2)nc(SCCCCCCCCC)n1 [Compound D5S9N12] | 24.6
2 | CCCCCCCCCCCCN(CCCCCCCCCCCC)c1nc(NCCCN2CCOCC2)nc(SCCCCCCCCC)n1 [D8S9^2N12] | 0.3
3 | CCCCCCCCCCCSc1nc(NCCCCCC)nc(NCC2CCN(C)CC2)n1 [Compound D10S11N6] | 6.8
4 | CCCCCCCCCCSc1nc(NCCCCCCCC)nc(NCCCN2CCOCC2)n1 [Compound D8S10N8] | 0.4
5 | CCCCCCSc1nc(NCCN(C)C)nc(SCCCCCC)n1 [Compound D1S6S6] | 0.7
6 | CCCCCCCCSc1nc(NCCN2CCOCC2)nc(SCCCCCC)n1 [Compound D2S6S8] | 5.0
7 | CCCCCCCCCNc1nc(NCCN(C)C)nc(SCCCCCCCC)n1 [Compound D1S8N9] | 21.4
8 | CCCCCCCCCCCCCCSc1nc(NCCCCCCCCCCC)nc(NCCCN(C)C)n1 [Compound D6S14N11] | 20.1
9 | CCCCCCCCCCCCCCCSc1nc(NCCN2CCOCC2)nc(N(CCCCCCCCCCCC)CCCCCCCCCCCC)n1 [D2S15^2N12] | 0.4
10 | CCCCCCCCCCCCCCCCCCSc1nc(NCCN(C)C)nc(SCCCCCCC)n1 [Compound D1S7S18] | 4.1
11 | CCCCCCCCCCCCCCCSc1nc(NCCCCCCCC)nc(NCC2CCN(C)CC2)n1 [Compound D10S15N8] | 12.9
12 | CCCCCCCCCCCSc1nc(NCCCCCCCC)nc(NCC2CCN(C)CC2)n1 [Compound D10S11N8] | 46.1
13 | CCCCCCCCCCCCCCCCSc1nc(NCCCCCCCCC)nc(NCC2CCN(C)CC2)n1 [Compound D10S16N9] | 49.2
14 | CCCCCCCCCCCSc1nc(NCCN2CCCCC2)nc(SCCCCCCC)n1 [Compound D4S7S11] | 8.0
15 | CCCCCCCCSc1nc(NCCCN2CCOCC2)nc(SCCCCCCC)n1 [Compound D8S7S8] | 5.0
16 | CCCCCCCCCSc1nc(NCC2CCN(C)CC2)nc(SCCCCCCCC)n1 [Compound D10S8S9] | 37.6
17 | CCCCCCCCCCCCCCCCSc1nc(NCCCCCCCCCCC)nc(NCCCN(C)C)n1 [Compound D6S16N11] | 63.0
18 | CCCCCCCCCCCCCCCCNc1nc(NCCCN2CCOCC2)nc(SCCCCCCCCCCCCCCCC)n1 [Compound D8S16N16] | 0.0
19 | CCCCCCCCCCCCCCCSc1nc(NCCCCCCCCC)nc(NCCCN2CCOCC2)n1 [Compound D8S15N9] | 1.1
20 | CCCCCCCCCCCCN(CCCCCCCCCCCC)c1nc(NCC2CCN(C)CC2)nc(SCCCCCCC)n1 [D10S7^2N12] | 1.4
21 | CCCCCCCCCCCCCCCNc1nc(NCCCN2CCN(C)CC2)nc(SCCCCCC)n1 [Compound D9S6N15] | 11.9
22 | CCCCCCCCCCCCCCCCCCSc1nc(NCCCCCCCCCCCCCCC)nc(NCCN(C)C)n1 [Compound D1S18N15] | 0.5
23 | CCCCCCCCCCCCCCSc1nc(NCCCCCCCC)nc(NCCCN2CCOCC2)n1 [Compound D8S14N8] | 1.6
24 | CCCCCCCCCCCCCCCSc1nc(NCCCCCCC)nc(NCCN2CCN(C)CC2)n1 [Compound D5S15N7] | 25.2
25 | CCCCCCCCCCCCCNc1nc(NCCN(CC)CC)nc(SCCCCCCCCCCCC)n1 [Compound D7S12N13] | 4.9

Row | SMILES | Absolute mRNA transfection efficiency in HEK293 cells [%]
26 | CCCCCCCCCCCCCCCCNc1nc(NCCCN2CCN(C)CC2)nc(SCCCCCCCCCCCCCC)n1 [Compound D9S14N16] | 0.8
27 | CCCCCCCCCCCCCCSc1nc(NCCCCCCCCCCCCC)nc(NCCCN2CCN(C)CC2)n1 [Compound D9S14N13] | 4.8
28 | CCCCCCCSc1nc(NCCCCCC)nc(NCCN(CC)CC)n1 [Compound D7S7N6] | 2.3
29 | CCCCCCCCCCCCNc1nc(NCCCN2CCN(C)CC2)nc(SCCCCCC)n1 [Compound D9S6N12] | 4.9
30 | CCCCCCCSc1nc(NCCCCCC)nc(NCC2CCN(C)CC2)n1 [Compound D10S7N6] | 2.0
31 | CCCCCCCCCCCCCCCCCCNc1nc(NCCN(CC)CC)nc(SCCCCCCCCCCCCCCCCCC)n1 [Compound D7S18N18] | 0.0
32 | CCCCCCCCCCSc1nc(NCCN2CCCC2)nc(SCCCCCCCC)n1 [Compound D3S8S10] | 12.0
33 | CCCCCCCCCCCCCCCCNc1nc(NCC2CCN(C)CC2)nc(SCCCCCC)n1 [Compound D10S6N16] | 41.5
34 | CCCCCCCCCCCCCCSc1nc(NCCCCCCCCCCC)nc(NCCN2CCN(C)CC2)n1 [Compound D5S14N11] | 19.8
35 | CCCCCCCCCCCCSc1nc(NCCCCCCCCCCC)nc(NCCCN2CCN(C)CC2)n1 [Compound D9S12N11] | 3.3
36 | CCCCCCCCCCCCCCCCSc1nc(NCCN(C)C)nc(N(CCCCCCCCCCCC)CCCCCCCCCCCC)n1 [D1S16^2N12] | 0.0
37 | CCCCCCCCCCCCSc1nc(NCCCCCCCCCCC)nc(NCCCN(C)C)n1 [Compound D6S12N11] | 14.0
38 | CCCCCCCCCCCCCCCCCCNc1nc(NCCCN2CCOCC2)nc(SCCCCCCCCCC)n1 [Compound D8S10N18] | 0.1
39 | CCCCCCCCCCCCCCCNc1nc(NCCCN2CCOCC2)nc(SCCCCCCCCCCCCCC)n1 [Compound D8S14N15] | 0.0
40 | CCCCCCCCCCCCCCCCSc1nc(NCCCCCCCCCCCCCCC)nc(NCCN2CCN(C)CC2)n1 [Compound D5S16N15] | 0.1
41 | CCCCCCCCCCCCCCCNc1nc(NCCN(CC)CC)nc(SCCCCCCCCCCCCCCC)n1 [Compound D7S15N15] | 1.8
42 | CCCCCCCCCCCCCCCCCCNc1nc(NCCN2CCOCC2)nc(SCCCCCCCCCCCC)n1 [Compound D2S12N18] | 0.8
43 | CCCCCCCCCCCCNc1nc(NCCN2CCCCC2)nc(SCCCCCCCCCCCC)n1 [Compound D4S12N12] | 2.1
44 | CCCCCCCCCSc1nc(NCC2CCN(C)CC2)nc(SCCCCCCC)n1 [Compound D10S7S9] | 33.5
45 | CCCCCCCCCCCNc1nc(NCCN2CCCCC2)nc(SCCCCCCCCCC)n1 [Compound D4S10N11] | 0.8
46 | CCCCCCCCCNc1nc(NCCN(C)C)nc(SCCCCCC)n1 [Compound D1S6N9] | 1.8
47 | CCCCCCCCCCCCCCCCSc1nc(NCCCCCCCCCCCCCCC)nc(NCCN2CCCCC2)n1 [Compound D4S16N15] | 0.1
48 | CCCCCCCCCCCCCNc1nc(NCCCN2CCN(C)CC2)nc(SCCCCCCCCC)n1 [Compound D9S9N13] | 20.0
49 | CCCCCCCCNc1nc(NCCN(CC)CC)nc(SCCCCCCC)n1 [Compound D7S7N8] | 3.5
